From patent US20170211073A1, “ANTISENSE ANTINEOPLASTIC AGENT” (priority 2014, published 2017)
[BNA] = bridged nucleic acid nucleotide (BNA), bridge type not specified for this compound; d = 2'-deoxy (DNA)

Experiments:
[1] = system: human pancreatic cancer SUIT2 cell strain, parent strain; assay: Gemcitabine sensitivity of SUIT2 parent strain; format: cell-based; settings: SUIT-2
Description: (§1) A human pancreatic cancer SUIT2 cell strain was prepared by culturing pancreatic cancer cells resistant to the anticancer agent, gemcitabine, for a long period of time in a medium containing gemcitabine at a low concentration (IC50 value, 100 nM for the resistant strain vs. 5 nM for the parent strain). Subcutaneous tumors were prepared in the same manner as that of Example 10, and 200 μg/200 μL of YB-1 ASO AmNA or control antisense was administered into the blood according to the same protocol (once every two weeks, total 2 times).

[2] = system: human pancreatic cancer SUIT2 cell strain, resistant strain; assay: Gemcitabine sensitivity of gemcitabine-resistant SUIT2 strain; format: cell-based; settings: SUIT-2
Description: as §1

[3] = General blood and biochemical examinations, mice with HCT116 sc tumor; settings: 10 mg/kg BW i.v. once a week for three weeks, blood one week after final treatment
Description: (§5) Subcutaneous tumor models were created by subcutaneously transplanting gemcitabine-resistant pancreatic cancer SUIT2-GR cells and large intestine cancer HCT116 cells to the thighs of nude mice. After tumors having a volume of 50 mm^3 were formed, 10 mg/kg BW of #10AmNA YB-1 antisense was administered from the caudal veins once a week over three weeks. The tumor diameters were measured over time.

[4] = General blood and biochemical examinations, mice with Suit2-GR sc tumor; settings: Suit2-GR sc Tumor; 10 mg/kg BW i.v. once a week for three weeks; blood one week after final treatment
Description: as §5

pancreatic cancer cells = assay: Proliferation by MTT assay, pancreatic cancer cells; format: cell-based; settings: final concentration 50 nM, vs control antisense oligo-nucleic acid
Description: (§2) Then, pancreatic cancer and vascular endothelial cell proliferation-suppressing effects of ASO#10 (also referred to as “YB-1 ASO”, TCTcctgcaccCTGg, SEQ ID NO: 2) were examined. The cells were inoculated into wells of a 96-well plate at a density of 60% confluent, ASO#10 was introduced into the pancreatic cancer cells at a final concentration of 50 nM, and endothelial cells at a final concentration of 5 nM on the next day by using the gene transduction reagent Lipofectamine RNAiMax, and then the proliferation ability was periodically measured by the MTT assay method. […] In addition, it was also confirmed that gastric cancer and breast cancer are also knocked down by ASO#10.

[5] = system: vascular endothelial HUVEC cells; assay: Annexin V-FITC apoptosis observation; format: cell-based
HUVEC = assay: Cell cycle analysis by PI flow cytometry, HUVEC; format: cell-based; settings: 5 nM, 72 hours
Description: (§3) In order to elucidate the mechanism of the pancreatic cancer cell and endothelial cell proliferation inhibitory effect observed in Example 2, YB-1 ASO BNA (TCTcctgcaccCTGg, SEQ ID NO: 2, the parts of the capital letters in the sequence correspond to BNAs, the same shall apply to the following examples) was introduced at a concentration of 5 nM into the endothelial cells (1×10^5/well) under the same conditions as mentioned above. After 72 hours from the introduction, the cells were incubated with PI (1 μg/ml) at 37° C. for 30 minutes, and then cell cycle analysis was performed by using a flow cytometer (FACS CantoII).

[6] = system: HCT116 large intestine cancer cells; assay: Administration of YB-1 ASO BNA into blood, HCT116 subcutaneous tumor; format: in vivo, nude mice; settings: 200 μg/200 μL caudal vein, once a week, total 3 times
Text: (§4) The SUIT2 pancreatic cancer cells or HCT116 large intestine cancer cells were subcutaneously transplanted into the thighs of nude mice to prepare subcutaneous tumors in a size of 6 to 7 mm. […] YB-1 ASO BNA suppressed proliferation of the tumors to a size of ¼ to ⅕ of those observed with the control antisense BNA (FIG. 5).

[7] = system: vascular endothelial cells; assay: Proliferation by MTT assay, endothelial cells; format: cell-based; settings: final concentration 5 nM, vs control antisense oligo-nucleic acid
Description: as §2

CDK1 and Cyclin B1 = assay: Protein expression of CDK1 and Cyclin B1 in HUVEC and HPAEC cells; format: cell-based; settings: vs control antisense oligonucleotide
[8] = system: MiaPaCa-luc pancreatic cancer cells; assay: Local administration into MiaPaCa-luc subcutaneous tumors, IVIS imaging; format: in vivo, nude mice; settings: 10 μM with atelocollagen 1:1, local, once a week, total twice; vs control antisense oligo BNA
Description: The MiaPaCa-luc pancreatic cancer cells stably expressing luciferase were subcutaneously transplanted into the thighs of nude mice to prepare subcutaneous tumors in a size of 6 to 7 mm. A mixture of YB-1 ASO BNA (final concentration, 10 μM) and atelocollagen implant at a volume ration of 1:1 was locally administered into the tumors (once a week, total twice), and the tumor volume (luciferase activity) was evaluated over time by IVIS imaging.

YB-1 [9] = assay: Screening of antisense oligo-nucleic acids by YB-1 expression-inhibitory ability in cancer cells (Lipofectamine RNAiMax); format: cell-based, human
YB-1 [10] = assay: YB-1 expression in tumor, liver, kidney after administration into blood, real-time RT-PCR; format: in vivo, nude mice; settings: HCT116 model, 200 μg/200 μL caudal vein, once a week, total 2 times, 48 hours after final administration
Description: After 48 hours from the final administration, subcutaneous tumors, livers, and kidneys were extracted, RNAs were extracted, and YB-1 expression was analyzed by real-time RT-PCR.

[11] = system: SUIT2 pancreatic cancer cells; assay: Administration of YB-1 ASO BNA into blood, SUIT2 subcutaneous tumor; format: in vivo, nude mice; settings: 200 μg/200 μL caudal vein, once a week, total 3 times
Text: as §4

HPAEC cells = assay: Cell cycle analysis by PI flow cytometry, HPAEC; format: cell-based; settings: 5 nM, 72 hours
Description: as §3

YB-1 and CD31 = assay: Immunostaining of YB-1 and CD31 in frozen tumor sections; format: in vivo, nude mice; settings: HCT116 model; vs control antisense BNA
[12] = Safety of administration of YB-1 ASO BNA into blood, blood biochemical examinations
Description: YB-1 ASO BNA (indicated as “ASO-YBX1” in FIG. 7) at a concentration of 100 μg/200 μL or 200 μg/200 μL was administered once into the blood of nude mice from the caudal veins. After 48 hours, blood was collected, and examined by blood biochemical examinations for ALT, T-Bil, BUN, and creatinin in order to evaluate the liver and kidney functions.

Nc1ccn([C@@H]2O[C@H](CO)[C@@H](O)C2(F)F)c(=O)n1 [gemcitabine]
IC50 [1]: 5 nM | IC50 [2]: 100 nM

CATttcgaagtACTc (antisense CATTTCGAAGTACTC; AmNA-modified units marked by uppercase, key not given here) [Ctrl]
ALT [3]: 26 ± 3 IU/L | AST [3]: 80 ± 10 IU/L | BUN [3]: 21.2 ± 2.0 mg/dL | CRE [3]: 0.07 ± 0.03 mg/dL | HCT [3]: 35.7 ± 2.7% | HGB [3]: 13.1 ± 0.3 g/dL | PLT [3]: 136.2 ± 10.8 ×10^4/μl | RBC [3]: 715 ± 55 ×10^4/μl | T-BIL [3]: 0.06 ± 0.02 mg/dL | WBC [3]: 48 ± 8 ×10^2/μl | ALT [4]: 45 ± 19 IU/L | AST [4]: 170 ± 183 IU/L | BUN [4]: 27.9 ± 5.4 mg/dL | CRE [4]: 0.10 ± 0.03 mg/dL | HCT [4]: 38.5 ± 2.1% | HGB [4]: 12.2 ± 0.6 g/dL | PLT [4]: 100.5 ± 33.3 ×10^4/μl | RBC [4]: 779 ± 39 ×10^4/μl | T-BIL [4]: 0.03 ± 0.01 mg/dL | WBC [4]: 29 ± 12 ×10^2/μl

TCTcctgcaccCTGg (TCTCCTGCACCCTGG; chemistry not fully specified) [ASO#10]
pancreatic cancer cell proliferation inhibitory effect (pancreatic cancer cells): Significantly higher | Annexin V-positive cells [5]: increase in Annexin V-positive cells | G2/M fraction (HUVEC): 14.5% | subG1 fractionation (HUVEC): 17.7% | tumor size as fraction of that with control antisense BNA [6]: ¼ to ⅕ | endothelial cell proliferation inhibitory effect [7]: Significantly higher | expression levels of CDK1 and Cyclin B1 (CDK1 and Cyclin B1): clearly suppressed | tumor volume (luciferase activity) [8]: significant suppression | YB-1 knockdown in gastric cancer and breast cancer (YB-1 [9]): knocked down | YB-1 expression in the tumors, livers, and kidneys as fraction of control antisense BNA (YB-1 [10]; listed as YB-1 ASO BNA): about ⅓ | YB-1 expression in the tumors, livers, and kidneys as fraction of control antisense BNA (YB-1 [10]; listed as YB-1 antisense oligo BNA): suppresses expression of YB-1 | tumor size as fraction of that with control antisense BNA [11]: ¼ to ⅕ | G2/M fraction (HPAEC cells): 14.0% | subG1 fractionation (HPAEC cells): 18.7% | expression of YB-1 and CD31 in tumor tissues (immunostaining) (YB-1 and CD31): reduced

CATttcgaagtACTc (antisense CATTTCGAAGTACTC; sugars from the 5' end [BNA]3 d8 [BNA]3 d1, backbone and methylation of C not given here) [control antisense oligo-BNA, reference compound]
ALT, T-Bil, BUN, creatinin (liver and kidney functions) ([12]; 100 μg/200 μL or 200 μg/200 μL once, caudal vein, 48 hours): any functional abnormality was not observed | liver function markers AST and T-Bil ([12]; repeatedly administered 3 times): did not show any functional abnormality | Annexin V-positive cells [5]: hardly observed | G2/M fraction (HUVEC): 22.1% | subG1 fractionation (HUVEC): 2.0% | G2/M fraction (HPAEC cells): 28.5% | subG1 fractionation (HPAEC cells): 1.3%
